From ChEMBL document CHEMBL1150786, “Relationship of blood level and susceptibility in voriconazole treatment of histoplasmosis” (2007) come the findings set out here.

In brackets after ≈: the same amount, converted by molar mass.

In test [1] the test system is Histoplasma capsulatum. The test is described as follows: Antimicrobial activity against Histoplasma capsulatum isolates form AIDS patient with relapsed histoplasmosis by modified CLSI method. It counts as functional.
The test system of test [2] is Histoplasma capsulatum. The experiment in a line: Antimicrobial activity against Histoplasma capsulatum isolates form AIDS patient with primary histoplasmosis by modified CLSI method. It counts as functional.

Take `C[C@@H](c1ncncc1F)[C@](O)(Cn1cncn1)c1ccc(F)cc1F` [VORICONAZOLE]: the MIC worked out at 0.03 µg/mL (≈ 0.0859 µM) in test [1] and 0.015 µg/mL (≈ 0.0429 µM) in test [2].
